From patent US5877165A, “Boronated porhyrins and methods for their use” (priority 1997, dated 1999)

Columns and labels:
EMT-6 mammary tumors = assay: Experiment II: boron concentrations in tissues, mice bearing EMT-6 tumors (Table 9); assay type: in vivo, BALB/c mice; settings: 90 hrs after last ip injection; NiDPE 78 (6 ip), VCDP 245 μg/gbw (12 ip)
Method: Lipophilic porphyrins 1, 2, 4, 5, and 6 were injected as emulsions in either 3% or 9% CRM and either 6% or 18% PRG with saline as previously described in Example 2 above. Water soluble porphyrins 3 and 7 were dissolved in saline. BPA was solubilized as a fructose complex.
Female BALB/c mice (from Taconic Farms, Germantown, N.Y.) (20-25 g) were implanted with either KHJJ or EMT-6 tumors according to the procedure described in Example 3A above.
Under deep halothane anesthesia leading to euthanasia, right ventricular blood was collected in Microtainer (Becton-Dickinson, Rutherford, N.J.) tubes containing EDTA for hematological analyses and boron assays of whole blood and in Microtainer™ tubes containing lithium heparin for chemical analyses and enzyme assays of blood plasma. Tumor, brain, fat, muscle, and liver tissues were sampled at necropsy for boron analyses.
Hematological, chemical and enzymatic tests were carried out as described in Example 3 above. Nonparametric statistical analyses were carried out using the Wilcoxon Two-Sample Test in accordance with procedures described in Slatkin, D.N., 1995. Boron analyses were conducted in accordance with the procedure described in Example 3 above. Fat and liver tissues were assayed for ^10 B by prompt-gamma spectroscopy as described in Fairchild, et al., 1986. These measurements were multiplied by 5.0 to give total boron concentrations due to the use of boron of natural isotope abundance in the syntheses of all boronated porphyrins reported.

[1] = Overall ranking of boronated porphyrins for BNCT guided by biodistribution and toxicity tests in mice (Table 11); settings: rank; higher numerical value = better performance
Method: The higher the numerical value, the better the performance of that porphyrin for that property. […] Although VCDP was able to deliver therapeutic amounts of boron to tumor, such side effects such as thrombocytopenia, which was induced within 3 hours after injections, weight loss, and the altered hepatic enzymes were serious enough to rank VCDP considerably behind the TCP's and the TCP-H's (Miura et al., 1992). In addition, the 80-hour drug administration period and the 90-hour blood clearance period are of great inconvenience. Moreover, this 4-day difference between the VCDP and the TCP (or TCP-H) dose and clearance schedules would translate into a 4-day greater delay between initiation of drug administration and neutron irradiation which would allow greater tumor growth to occur.
[…]
biodistribution and toxicity tests in mice. An asterisk indicates

EMT-6 tumors = assay: Boron concentrations arithmetically normalized to constant dose, mice bearing EMT-6 tumors (FIG. 3); assay type: in vivo, BALB/c mice; settings: normalized porphyrin dose (160 μg porphyrin/gbw)
Method: Since the porphyrins were not given at the same dose, the boron concentrations in tumor, blood, and brain were arithmetically normalized to a total dose of 160 μg porphyrin/gbw for comparison in FIG. 3. Since each porphyrin has a different percentage of boron per unit mass, tumor boron concentrations were also arithmetically normalized to a total dose of 36.5 μg B/gbw, also shown in FIG. 3.

[2] = cited from earlier work

In the case of “3,8-divinyl-nido-carboranyldeuteroporphyrin [VCDP]”, the “Boron concentration, Blood” value (EMT-6 mammary tumors) is reported as 7 (4.3-13) μB/g, the “Boron concentration, Brain” value (EMT-6 mammary tumors) is reported as 8.1 (4.9-16.2) μB/g and the “Boron concentration, Tumor” value (EMT-6 mammary tumors) is reported as 53 (30-106) μB/g. The “Drug tolerance/deliverable boron (ranking)” value [1] was 2, the “Lipophilicity (ranking)” value [1] was 0 and the “Tumor uptake (normalized) (ranking)” value [1] was 3. For the same substance, the “Tumor:Blood (ranking)” value [1] was 2, the “tumor boron uptake, normalized” value (EMT-6 tumors) was 38 and the “toxicity vs control, in words” value ([2]; 130 μg VCDP/gbw over 32 hr, 90 hrs after last injection (Miura et al., 1992)) was “no differences from control groups given a bicarbonate solution, although CPK was slightly depressed”. The “time to thrombocytopenia after injections” value ([2]; Miura et al., 1992) was at most 3 h and the “dose per injection that keeps mortality below 10%” value ([2]; per injection, mice) was 22 μg VCDP/gbw.
